{"source": "patent US20080227780A1", "about": "“SOLUBLE EPOXIDE HYDROLASE INHIBITORS” (Arete Therapeutics, Inc., priority 2007, published 2008)"}
{"system": "soluble epoxide hydrolase (sEH)", "test": "Fluorescent assay for soluble epoxide hydrolase (CMNPC substrate), percent inhibition at the recited concentration", "assay_type": "biochemical", "conditions": "Inhibition Conc. 50 nM", "how_it_was_run": "(§1)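 Purified recombinant baculovirus-expressed sEH in 25 mM Bis/Tris HCl pH 7.0 with 0.1 mg/mL BSA; inhibitor serially diluted and preincubated with enzyme 5 min at 30 °C. Reaction started with 5 μM (final) substrate; fluorescence (ex 330/em 465 nm) read every 30 s for 10 min, and velocities give % inhibition.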", "units": {"% inh.": "%"}}
{"smiles": "CC(C)(C)C(=O)N1CCC(NC(=O)NC23CC4CC(CC(C4)C2)C3)CC1", "note": "[Compound 7-13, 1-(1-adamantyl)-3-(1-pivaloylpiperidin-4-yl)urea]", "% inh.": 91}
{"smiles": "NS(=O)(=O)c1cccc(C(=O)N2CCC(NC(=O)Nc3ccc(C(F)(F)F)cc3)CC2)c1", "note": "[Compound 4-6, 3-(4-(3-(4-(trifluoromethyl)phenyl)ureido)piperidine-1-carbonyl)benzene-sulfonamide]", "% inh.": 99}
{"smiles": "O=C(Nc1ccc(C(F)(F)F)cc1)NC1CCN(c2ncccc2C(F)(F)F)CC1", "note": "[Compound 2-2]", "% inh.": 97}
{"smiles": "O=C(NC1CCN(S(=O)(=O)c2ccc3ccccc3c2)CC1)NC12CC3CC(CC(C3)C1)C2", "note": "[Compound 7-25, 1-adamantyl-3-(1-(naphthalen-2-ylsulfonyl)piperidin-4-yl)urea]", "% inh.": 99}
{"smiles": "O=C(NC1CCN(S(=O)(=O)c2ccccc2C(F)(F)F)CC1)NC12CC3CC(CC(C3)C1)C2", "note": "[Compound 7-32, 1-adamantyl-3-(1-(2-(trifluoromethyl)phenylsulfonyl)piperidin-4-yl)urea]", "% inh.": 97}
{"smiles": "CC(=O)N1CCC(NC(=O)NCC23CC4CC(CC(C4)C2)C3)CC1", "note": "[Compound 1-1, 1-(1-acetyl-piperidin-4-yl)-3-(1-adamantyl-methyl)-urea]", "% inh.": 87}
{"smiles": "CNS(=O)(=O)c1cccc(C(=O)N2CCC(NC(=O)Nc3ccc(C(F)(F)F)cc3)CC2)c1", "note": "[Compound 4-9, N-methyl-3-(4-(3-(4-(trifluoromethyl)phenyl)ureido)piperidine-1-carbonyl)benzene-sulfonamide]", "% inh.": 99}
{"smiles": "CNS(=O)(=O)c1cccc(C(=O)N2CCC(NC(=O)Nc3ccc(OC(F)(F)F)cc3)CC2)c1", "note": "[Compound 4-10, N-methyl-3-(4-(3-(4-(trifluoromethoxy)-phenyl)ureido)-piperidine-1-carbonyl)benzene-sulfonamide]", "% inh.": 93}
{"smiles": "O=C(NC1CCN(S(=O)(=O)c2cccs2)CC1)NC12CC3CC(CC(C3)C1)C2", "note": "[Compound 7-28, 1-adamantyl-3-(1-(thiophen-2-ylsulfonyl)piperidin-4-yl)urea]", "% inh.": 94}
{"smiles": "O=C(NC1CCN(c2ccccc2)CC1)NC12CC3CC(CC(C3)C1)C2", "note": "[Compound 2-3, 1-(1-adamantyl)-3-(1-phenylpiperidin-4-yl)urea]", "% inh.": 98}
{"smiles": "O=C(NC1CCN(S(=O)(=O)c2ccccc2)CC1)NC12CC3CC(CC(C3)C1)C2", "note": "[Compound 7-26, 1-adamantyl-3-(1-(phenylsulfonyl)piperidin-4-yl)urea]", "% inh.": 97}
{"smiles": "COC(=O)N1CCC(NC(=O)Nc2ccc(C(F)(F)F)cc2)CC1", "note": "[Compound 7-14, methyl 4-(3-(4-(trifluoromethyl)phenyl)ureido)piperidine-1-carboxylate]", "% inh.": 92}
{"smiles": "O=C(NC1CCN(S(=O)(=O)c2ccc(Cl)c(Cl)c2)CC1)NC12CC3CC(CC(C3)C1)C2", "note": "[Compound 7-37]", "% inh.": 100}
{"system": "soluble epoxide hydrolase (sEH)", "test": "Fluorescent assay for soluble epoxide hydrolase (CMNPC substrate), percent inhibition at the recited concentration", "assay_type": "biochemical", "conditions": "Inhibition Conc. 200 nM", "how_it_was_run": "as §1", "units": {"% inh.": "%"}}
{"smiles": "CC(C)(C)OC(=O)N1CCC(NC(=O)NC2CCC2)CC1", "note": "[Compound 7-50, tert-butyl 4-(3-cyclobutylureido)piperidine-1-carboxylate]", "% inh.": 76}
{"smiles": "CC(C)(C)S(=O)(=O)N1CCC(NC(=O)NC23CC4CC(CC(C4)C2)C3)CC1", "note": "[Compound 7-78, 1-(1-(tert-butylsulfonyl)piperidin-4-yl)-3-adamantylurea]", "% inh.": 95}
{"smiles": "CC(C)(C)S(=O)(=O)N1CCC(NC(=O)Nc2ccc(OC(F)(F)F)cc2)CC1", "note": "[Compound 7-77, 1-(1-(tert-butylsulfonyl)piperidin-4-yl)-3-(4-(trifluoromethoxy)phenyl)urea]", "% inh.": 99}
{"smiles": "CC(C)(C)C(=O)N1CCC(NC(=O)Nc2ccc(C#N)cc2)CC1", "note": "[Compound 7-81, 1-(4-cyanophenyl)-3-(1-pivaloylpiperidin-4-yl)urea]", "% inh.": 91}
{"smiles": "COC(=O)c1ccc(NC(=O)NC2CCN(C(=O)OC(C)(C)C)CC2)s1", "note": "[Compound 6-17, tert-butyl 4-(3-(5-(methoxycarbonyl)thiophen-2-yl)ureido)piperidine-1-carboxylate]", "% inh.": 87}
{"smiles": "CC(=O)N1CCC(NC(=O)NCCC(c2ccccc2)c2ccccc2)CC1", "note": "[Compound 1-7, 1-(1-acetypiperidin-4-yl)-3-(3,3-diphenylpropyl)urea]", "% inh.": 100}
{"smiles": "CC(=O)N1CCC(NC(=O)NC23CC4CC(C2)C(F)(F)C(C4)C3)CC1", "note": "[Compound 3-10, 1-(1-acetylpiperidin-4-yl)-3-(4,4-difluoroadamantyl)urea]", "% inh.": 76}
{"smiles": "CC(=O)N1CCC(NC(=O)N2CCC(NC(=O)NC34CC5CC(CC(C5)C3)C4)CC2)CC1", "note": "[Compound 7-57, N-(1-acetylpiperidin-4-yl)-4-(3-adamantylureido)piperidine-1-carboxamide]", "% inh.": 90}
{"smiles": "O=C(Nc1ccc(C(F)(F)F)cc1)NC1CCN(c2nccs2)CC1", "note": "[Compound 2-8, 1-(1-(thiazol-2-yl)piperidin-4-yl)-3-(4-(trifluoromethyl)phenyl)urea]", "% inh.": 98}
{"system": "soluble epoxide hydrolase (sEH)", "test": "Fluorescent assay for soluble epoxide hydrolase (CMNPC substrate), percent inhibition at the recited concentration", "assay_type": "biochemical", "conditions": "Inhibition Conc. 500 nM", "how_it_was_run": "as §1", "units": {"% inh.": "%"}}
{"smiles": "CNS(=O)(=O)c1cccc(C(=O)N2CCC(NC(=O)Cc3ccc(Cl)cc3)CC2)c1", "note": "[Compound 7-85, 2-(4-chlorophenyl)-N-(1-(3-(N-methyl-sulfamoyl)benzoyl)-piperidin-4-yl)acetamide]", "% inh.": 73}
{"smiles": "CC(=O)N1CCC(NC(=O)NC2CCCCC2)CC1", "note": "[Compound 7-43, 1-(1-acetylpiperidin-4-yl)-3-cyclohexylurea]", "% inh.": 86}
{"smiles": "CC(=O)N1CCC(NC(=O)Nc2ccc(Oc3ccccc3)cc2)CC1", "note": "[Compound 7-12, 1-(1-acetylpiperidin-4-yl)-3-(4-phenoxyphenyl)urea]", "% inh.": 95}
{"smiles": "CC(=O)N1CCC(NC(=O)Nc2ccc3c(c2)CCC3)CC1", "note": "[Compound 6-6, 1-(1-acetyl-piperidin-4-yl)-3-(2,3-dihydro-1H-inden-5-yl)urea]", "% inh.": 93}
{"smiles": "CC(=O)N1CCC(NC(=O)NC23CC4(F)CC(F)(CC(F)(C4)C2)C3)CC1", "note": "[Compound 3-1, 1-(1-acetylpiperidin-4-yl)-3-(3,5,7-trifluoroadamant-1-yl)urea]", "% inh.": 70}
{"smiles": "CNS(=O)(=O)c1ccc(C(=O)N2CCC(NC(=O)Nc3ccc(F)cc3)CC2)cc1", "note": "[Compound 4-11, 4-(4-(3-(4-fluorophenyl)ureido)piperidine-1-carbonyl)-N-methylbenzene-sulfonamide]", "% inh.": 94}
{"smiles": "CC(=O)N1CCC(NC(=O)Nc2ccc(S(=O)(=O)N3CCOCC3)cc2)CC1", "note": "[Compound 5-2, 1-(1-acetylpiperidin-4-yl)-3-(4-(morpholinosulfonyl)phenyl)urea]", "% inh.": 90}
{"smiles": "CC(=O)N1CCC(NC(=O)Nc2ccc3ncccc3c2)CC1", "note": "[Compound 6-4, 1-(1-acetylpiperidin-4-yl)-3-(quinolin-6-yl)urea]", "% inh.": 70}
{"smiles": "O=C(Nc1ccc(C(F)(F)F)cc1)NC1CCN(c2ncccc2C(=O)O)CC1", "note": "[Compound 2-7]", "% inh.": 64}
{"system": "soluble epoxide hydrolase (sEH)", "test": "Fluorescent assay for soluble epoxide hydrolase (CMNPC substrate), percent inhibition at the recited concentration", "assay_type": "biochemical", "conditions": "Inhibition Conc. 2000 nM", "how_it_was_run": "as §1", "units": {"% inh.": "%"}}
{"smiles": "CC(=O)N1CCC(NC(=O)NC2CCN(C)CC2)CC1", "note": "[Compound 8-3, 1-(1-acetylpiperidin-4-yl)-3-(1-methylpiperidin-4-yl)urea]", "% inh.": 0}
{"smiles": "O=C(Nc1ccc(OC(F)(F)F)cc1)NC1CCN(c2ccc(F)cc2)CC1", "note": "[Compound 2-11, 1-(1-(4-fluorophenyl)piperidin-4-yl)-3-(4-(trifluoromethoxy)phenyl)urea]", "% inh.": 100}
{"smiles": "CC(=O)N1CCC(NC(=O)NC2CCC3(CCCC3)CC2)CC1", "note": "[Compound 7-83, 1-(1-acetylpiperidin-4-yl)-3-(spiro[4.5]decan-8-yl)urea]", "% inh.": 100}
{"smiles": "CC(=O)N1CCC(NC(=O)Nc2ccc3c(c2)OCCO3)CC1", "note": "[Compound 6-19, 1-(1-acetylpiperidin-4-yl)-3-(2,3-dihydrobenzo[b][1,4]dioxin-6-yl)urea]", "% inh.": 87}
{"smiles": "CC(=O)N1CCC(NC(=O)NC2CCOCC2)CC1", "note": "[Compound 8-4, 1-(1-acetylpiperidin-4-yl)-3-(tetrahydro-2H-pyran-4-yl)urea]", "% inh.": 23}
{"smiles": "CN(C)c1ccc(NC(=O)NC2CCN(C(=O)OC(C)(C)C)CC2)cc1", "note": "[Compound 7-65, tert-butyl 4-(3-(4-(dimethylamino)phenyl)ureido)piperidine-1-carboxylate]", "% inh.": 95}
{"smiles": "CC(C)(C)OC(=O)N1CCC(NC(=O)Nc2ccc(N3CCOCC3)cc2)CC1", "note": "[Compound 7-86, tert-butyl 4-(3-(4-morpholinophenyl)ureido)piperidine-1-carboxylate]", "% inh.": 90}
{"system": "soluble epoxide hydrolase (sEH)", "test": "Fluorescent assay for soluble epoxide hydrolase (CMNPC substrate), percent inhibition at the recited concentration", "assay_type": "biochemical", "conditions": "Inhibition Conc. 5000 nM", "how_it_was_run": "as §1", "units": {"% inh.": "%"}}
{"smiles": "CC(=O)N1CCC(NC(=O)NC23CC4CC(C2)C(O)C(C4)C3)CC1", "note": "(single isomer, unassigned) [Compound 3-7]", "% inh.": 81}
{"smiles": "CC(C)(C)OC(=O)N1CCC(NC(=O)Nc2ccncc2)CC1", "note": "[Compound 6-3, tert-butyl 4-(3-pyridin-4-yl-ureido)piperidine-1-carboxylate]", "% inh.": 81}
{"smiles": "O=C(NC1CCN(c2ccncc2)CC1)NC12CC3CC(CC(C3)C1)C2", "note": "[Compound 2-4, 1-(1-adamantyl)-3-(1-(pyridin-4-yl)piperidin-4-yl)urea]", "% inh.": 92}
{"smiles": "CCCOc1ccc(NC(=O)NC2CCN(C(C)=O)CC2)cc1", "note": "[Compound 7-11, 1-(1-acetylpiperidin-4-yl)-3-(4-propoxyphenyl)urea]", "% inh.": 94}
{"smiles": "CC(=O)N1CCC(NC(=O)NC2CCCC2)CC1", "note": "[Compound 7-18, 1-(1-acetylpiperidin-4-yl)-3-cyclopentylurea]", "% inh.": 74}
{"smiles": "CC(=O)N1CCC(NC(=O)NC23CC4CC(C2)C(O)C(C4)C3)CC1", "note": "(single isomer, unassigned) [Compound 3-8]", "% inh.": 76}
